Assay results from patent US20250177362A1, “HETEROCYCLIC GLP-1 AGONISTS” (Gasherbrum Bio, Inc., priority 2022, published 2025).

These molecules were tested against T1, GLP-1 Receptor (Homo sapiens, UniProt P43220) (assay: GLP-1R agonist cAMP stimulation assay). Settings: HEK293/CRE-Luc cell line stably expressing the GLP-1 Receptor; 30 min incubation; cAMP dynamic 2 Kit (Cisbio).
T1 construct: host or cells: HEK293/CRE-Luc (HEK293/GLPIR/CRE-LUC)
Assay type: cell-based
Method: Activation of GLP-1 receptor is known to stimulate cyclic AMP (cAMP) production in cells which indicates primary coupling to the Gas subunit of the G protein heterotrimeric complex.
To optimize functional activity directed toward Gas coupling, a HEK293/CRE-Luc cell line developed by HDB stably expressing the GLP-1 Receptor was used. 200× concentration of compound working solutions were prepared (Agilent Technologies Bravo) with ½ log serial dilution in 384-well Echo LDV plate (Labcyte, Cat #LP-0200). 50 nL/well 200× concentration of compound working solutions were moved to 384-well white low volume plate (Greiner, Cat #784075) using Labcyte ECHO550. 1×10^5 cells/mL HEK293/GLPIR/CRE-LUC (HD Biosciences) cell suspensions prepared with assay buffer [DPBS containing 0.5 mM IBMX (Sigma, Cat #15879) and 0.10% BSA (GENVIEW, Cat #FA016-100g)], 10 μL cell suspensions were added to each well of previous generated assay plate which already contains 50 nL compound at 200× concentration using ThermoFisher Multidrop Combi (1000 cells/well). Seal the plate and incubate at 37° C. with 5% CO2 for 30 min.
After incubation the cAMP assay signal was generated using cAMP dynamic 2 Kit (Cisbio). 5 μL cAMP-d2 working solution was added to each well, followed with 5 μL Anti-cAMP antibody-cryptate working solution added to each well using ThermoFisher Multidrop Combi. Incubate at room temperature for 1 hour protected from light. Read the fluorescence at 665 and 615 nm with Reader PerkinElmer EnVision.

T1 sequence (P43220 24-463, species assumed): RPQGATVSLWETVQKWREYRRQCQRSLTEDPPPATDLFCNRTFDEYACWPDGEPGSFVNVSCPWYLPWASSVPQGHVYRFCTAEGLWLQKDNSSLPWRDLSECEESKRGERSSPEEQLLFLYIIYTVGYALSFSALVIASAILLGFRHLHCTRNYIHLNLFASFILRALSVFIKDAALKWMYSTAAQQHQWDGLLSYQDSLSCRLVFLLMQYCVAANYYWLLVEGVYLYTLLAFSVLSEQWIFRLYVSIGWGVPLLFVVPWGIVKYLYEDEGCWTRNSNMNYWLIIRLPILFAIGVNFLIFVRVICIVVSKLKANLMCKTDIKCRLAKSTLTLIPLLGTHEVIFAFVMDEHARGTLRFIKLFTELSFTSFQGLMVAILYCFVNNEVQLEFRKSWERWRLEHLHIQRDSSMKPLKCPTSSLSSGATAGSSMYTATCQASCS

C[C@]1(c2ccc(Cl)cc2F)Oc2cccc(C3CCN(Cc4nnc(-c5nnc(C(F)(F)F)[nH]5)cc4N4CCC(O)C4)CC3)c2O1 (stereo partly drawn) [F-15, 1-(3-((4-((S)-2-(4-chloro-2-fluorophenyl)-2-methylbenzo[d][1,3]dioxol-4-yl)piperidin-1-yl)methyl)-6-(5-(trifluoromethyl)-4H-1,2,4-triazol-3-yl)pyridazin-4-yl)pyrrolidin-3-ol] was tested. Which EC50 did it give?
Its EC50 is 1 to 100 nM.

With C[C@]1(c2ccc(Cl)cc2F)Oc2cccc(C3CCN(Cc4ncc(-c5nnc(C(F)(F)F)[nH]5)cc4CS(=O)(=O)C4CC4)CC3)c2O1 [F-16] as the molecule, how does the EC50 read?
Its EC50 is 1 to 100 nM.

With CC1CN(c2cc(-c3nnc(C(F)(F)F)[nH]3)nnc2CN2CCC(c3cccc4c3O[C@@](C)(c3ccc(Cl)cc3F)O4)CC2)CCO1 (stereo partly drawn) [F-17, 4-(3-((4-((S)-2-(4-chloro-2-fluorophenyl)-2-methylbenzo[d][1,3]dioxol-4-yl)piperidin-1-yl)methyl)-6-(5-(trifluoromethyl)-4H-1,2,4-triazol-3-yl)pyridazin-4-yl)-2-methylmorpholine] as the molecule, how does the EC50 read?
The EC50 was 1 to 100 nM.

CC1(C#N)CN(c2cc(-c3nnc(C(F)(F)F)[nH]3)cnc2CN2CCC(c3cccc4c3O[C@@](C)(c3ccc(Cl)cc3F)O4)CC2)C1 [F-18, (S)-1-(2-((4-(2-(4-chloro-2-fluorophenyl)-2-methylbenzo[d][1,3]dioxol-4-yl)piperidin-1-yl)methyl)-5-(5-(trifluoromethyl)-4H-1,2,4-triazol-3-yl)pyridin-3-yl)-3-methylazetidine-3-carbonitrile] was tested. Which EC50 did it give?
Its EC50 is 1 to 100 nM.

Which EC50 does the source give for C[C@]1(c2ccc(Cl)cc2F)Oc2cccc(C3CCN(Cc4ncc(-c5nnc(C(F)(F)F)[nH]5)cc4C4COC4)CC3)c2O1 [F-19] here?
The EC50 was over 100 nM.

How did the EC50 turn out when COc1cc(-c2nnn[nH]2)cnc1CN1CCC(c2cccc3c2OC(C)(c2ccc(Cl)cc2F)O3)CC1 (stereo not drawn) [F-20, 2-((4-(2-(4-chloro-2-fluorophenyl)-2-methylbenzo[d][1,3]dioxol-4-yl)piperidin-1-yl)methyl)-3-methoxy-5-(1H-tetrazol-5-yl)pyridine] was run?
Its EC50 is over 100 nM.
